Converted amounts (≈) assume the structure as drawn.
Experiments:
[1] = system: MCF7, H460, FADU, HEP2, HEPG2, HCT 116, Caco2, and Vero cells; assay: Oxidative stress assessment (MDA, NO, SOD, GSH); type: cell-based; conditions: dose IC50, 48 h
Experimental: Consequently, both compounds 8 and 14 were tested for their antioxidant activity in MCF7, H460, FADU, HEP2, HEPG2, HCT 116, Caco2, and Vero cells, and the dose used was the IC50 in all cell lines.
SI 2: Oxidative stress assessment
SI 2A: Determination of malondialdehyde content (MDA)
Lipid peroxidation products were quantified by measuring MDA level in cell culture lysate of control and treated cells using Lipid Peroxidation (MDA) Assay Kit (Sigma Aldrich Chemical Co., St.
Louis, USA) following the manufacturer’s instructions. The MDA level was calculated relative to the corresponding protein content. The absorbance was determined at 532 nm using a spectrophotometer (Spectronic, Milton Roy Co., USA).
SI 2B: Determination of superoxide dismutase (SOD)
[…] in cell culture lysate of control and treated cells by SOD determination kit (Sigma Aldrich Chemical Co., St. Louis, USA) following the manufacturer’s instructions. SOD level was calculated relative to the corresponding protein content. The absorbance of the supernatant was determined at 450 nm using a spectrophotometer (Spectronic, Milton Roy Co., USA) 2. The experiment was carried out three independent times.
SI 2C: Determination of reduced glutathione (GSH) content
Reduced glutathione was determined by adopting Ellman’s method. MCF7 and LCC2 cells were harvested, the protein was precipitated with trichloroacetic acid, and Ellman’s reagent [5,5-dithiobis-(2-nitrobenzoic acid)] (Sigma Aldrich Chemical Co, St. Louis, USA) was added to the supernatant. The absorbance was read at 405 nm and total SH was calculated as µM of GSH/mg protein 3.
SI 2D: Determination of nitric oxide (NO) content
Nitric oxide was determined in the culture media of the control and treated cells a s described before
4. Briefly, 0.5 ml cold absolute ethanol was added to 250µl culture media then left for 48 h at 4 °C to attain complete protein precipitation followed by centrifugation at 13,000 rpm for 1 h using a cooling centrifuge.
100 μl of nitrate standard solution were serially diluted in duplicate in a 96 -well microplate. Then, 100 μl of vanadium chloride were added to each well rapidly followed by 50 μl sulfanilamide and 50µl n -(1-naphthyl) ethylenediamine in 2 N hydrochloric acid. The absorbance at 540 nm was measured spectrophotometrically using an ELISA microplate reader (TECAN SunriseTM, Germany) following an incubation period of 30 min. The level of total nitrite/nitrate was expressed as µM and determined using […]

VERO = assay: Cytotoxicity screening, SRB assay, normal Vero cells; type: cell-based; conditions: 48 h, normal cell line; for IC50: Chlorocebus sabaeus, Vero
Experimental: In this study, a panel of cell lines was examined for their chemosensitivity. Different concentrations of the synthesised pyridines and pyrimidine derivatives were used in this study (5, 12.5, 25, and 50 µg/mL) for all the examined cell lines. In this study, breast tumour cell line (MCF7), hepatocellular carcinoma cell line (HEPG2), larynx cell line (HEP2), lung cancer cell line (H460), colon cancer cell line (HCT116 and Caco2), hypopharyngeal cell line (FADU), and normal Vero cell line were applied. The full methodology is described in the Supplementary data (SI 1).
SI 1: Cytotoxicity screening against human cancer cell lines
In this study, a panel of cell lines was examined for their chemosensitivity. Different concentrations of the synthesized pyridines and pyrimidines derivatives were used in this study (5, 12.5, 25, and 50 µg/ml) for all the examined cell lines. The most sensitive cell line to the treatment regimen was selected and subjected to further investigations to explore the mechanism of this interaction. Human breast tumor cell line (MCF7), human hepatocellular carcinoma cell line (HEPG2), human larynx cell line (HEP2), human lung cancer cell line (H460), human colon cancer cell line (HCT116 and Caco2), human hypopharyngeal cell line (FaDu), and normal cell line Vero were used in this study. It was obtained from the American Type Culture Collection (ATCC, Minnesota, USA). The tumor cell line was maintained at National Cancer Institute (NCI), Cairo, Egypt.
The antitumor activities of pyridines and pyrimidines derivatives and all tested cell lines were evaluated by sulphorhodamine-B (SRB) assay 1. Briefly, cells were seeded at a density of 3 × 10^3 cells/well in 96-well microtiter plates. They were left to attach for 24 h before incubation with drugs. Next, cells were treated with different concentrations of 5, 12.5, 25, and 50 µg/ml for MCF7, HEPG2, HEP2, HCT116, Caco2, H460, FaDu, and Vero cells. For each concentration, three wells were used and incubation was continued for 48 h. DMSO was used as a control vehicle (1 % v/v). At the end of incubation, cells were fixed with 20 % trichloroacetic acid and stained with 0.4 % SRB dye. The optical density (O.D.) of each well was measured spectrophotometrically at 570 nm using an ELISA microplate reader (TECAN sunrise™, Germany). The mean survival fraction at each drug concentration was calculated as follows: […]
O.D. of the treated cells/O.D. of the control cells. The IC50 (concentration that produces 50% of cell growth inhibition) value of each drug was calculated using sigmoidal dose-response curve-fitting models (Graph Pad Prizm software, version 5) 1.

SMILES	effect on oxidative state (MDA, NO, SOD, GSH) ([1]; Caco2)	effect on oxidative state (MDA, NO, SOD, GSH) ([1]; all tested cell lines except Caco2)	IC50 (VERO)	VERO IC50 (VERO)	effect on oxidative state (MDA, NO, SOD, GSH) ([1]; FADU and Caco2)	effect on oxidative state (MDA, NO, SOD, GSH) ([1]; MCF7, H460, HEP2, HEPG2, HCT, and Vero cells)
Oc1n[nH]c2nc(-c3ccco3)cc(-c3cccs3)c12 [Compound 8]	antioxidant effect	pro-oxidant effect	4.3 µg/mL (≈ 15.2 µM)	3.90 µg/mL	–	–
N#Cc1c(-c2cccs2)cc(-c2ccco2)[nH]c1=O [Compound 14]	–	–	4 µg/mL (≈ 14.9 µM)	4.60 µg/mL	anti-oxidant effect	pro-oxidant effect

Source: PMC9635468, “Biological evaluation, docking studies, and in silico ADME prediction of some pyrimidine and pyridine derivatives as potential EGFR^WT and EGFR^T790M inhibitors” (Journal of Enzyme Inhibition and Medicinal Chemistry, 2022)
